What follows are compounds tested against FGFR2 (Homo sapiens, UniProt P21802) (assay: FGFR wild type enzyme assay (HTRF KinEASE-TK), FGFR2). Details: Enz FGFR2 (nM), FGFR2 wild type enzyme.
Chain of FGFR2 (P21802 399-821 limits assumed): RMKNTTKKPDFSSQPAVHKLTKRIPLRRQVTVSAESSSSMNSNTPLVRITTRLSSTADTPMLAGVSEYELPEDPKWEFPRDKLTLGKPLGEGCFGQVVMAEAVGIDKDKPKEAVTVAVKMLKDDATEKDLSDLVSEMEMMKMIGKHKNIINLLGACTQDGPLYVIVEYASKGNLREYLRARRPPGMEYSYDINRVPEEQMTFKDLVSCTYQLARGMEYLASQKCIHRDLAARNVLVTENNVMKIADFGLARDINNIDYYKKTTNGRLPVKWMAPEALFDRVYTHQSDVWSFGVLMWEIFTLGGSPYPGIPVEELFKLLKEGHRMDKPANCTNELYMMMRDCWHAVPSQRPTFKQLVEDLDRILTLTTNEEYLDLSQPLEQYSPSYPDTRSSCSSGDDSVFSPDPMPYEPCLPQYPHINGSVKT

**Q.** `COCCN1CCC(n2ncc(-c3cc(Sc4ccccc4C#N)c4c(C#N)cnn4c3)c2C)CC1` [Example 139, 4-((2-cyanophenyl)thio)-6-(1-(1-(2-methoxyethyl)piperidin-4-yl)-5-methyl-1H-pyrazol-4-yl)pyrazolo[1,5-a]pyridine-3-carbonitrile] was tested. Which IC50 did it give?
**A.** Its IC50 is 1 nM.

**Q.** `CO[C@H](C)CN1CCC(n2ncc(-c3cc(Sc4ccccc4C#N)c4c(C#N)cnn4c3)c2C)CC1` [Example 140, (R)-4-((2-cyanophenyl)thio)-6-(1-(1-(2-methoxypropyl)piperidin-4-yl)-5-methyl-1H-pyrazol-4-yl)pyrazolo[1,5-a]pyridine-3-carbonitrile] was tested. Which IC50 did it give?
**A.** Its IC50 is 1 nM.

**Q.** `Cc1c(-c2cc(Sc3ccccc3C#N)c3c(C#N)cnn3c2)cnn1C1CCN(C[C@@H](C)O)CC1` [Example 141, (R)-4-((2-cyanophenyl)thio)-6-(1-(1-(2-hydroxypropyl)piperidin-4-yl)-5-methyl-1H-pyrazol-4-yl)pyrazolo[1,5-a]pyridine-3-carbonitrile] was tested. Which IC50 did it give?
**A.** Its IC50 is 1 nM.

**Q.** How did the IC50 turn out when `Cc1c(-c2cc(Sc3ccccc3C#N)c3c(C#N)cnn3c2)cnn1C1CCN(C[C@H](C)O)CC1` [Example 142, (S)-4-((2-cyanophenyl)thio)-6-(1-(1-(2-hydroxypropyl)piperidin-4-yl)-5-methyl-1H-pyrazol-4-yl)pyrazolo[1,5-a]pyridine-3-carbonitrile] was run?
**A.** The IC50 was 13 nM.

**Q.** Which IC50 does the source give for `Cc1c(-c2cc(Sc3ncccc3F)c3c(C#N)cnn3c2)cnn1C1CCN(C[C@@H](C)O)CC1` [Example 143, (R)-4-((3-fluoropyridin-2-yl)thio)-6-(1-(1-(2-hydroxypropyl)piperidin-4-yl)-5-methyl-1H-pyrazol-4-yl)pyrazolo[1,5-a]pyridine-3-carbonitrile] here?
**A.** The IC50 was 2 nM.

**Q.** `Cc1c(-c2cc(Sc3ncccc3F)c3c(C#N)cnn3c2)cnn1C1CCN(C[C@H](C)O)CC1` [Example 144, (S)-4-((3-fluoropyridin-2-yl)thio)-6-(1-(1-(2-hydroxypropyl)piperidin-4-yl)-5-methyl-1H-pyrazol-4-yl)pyrazolo[1,5-a]pyridine-3-carbonitrile] was tested. Which IC50 did it give?
**A.** Its IC50 is 1.5 nM.

**Q.** `Cc1c(-c2cc(Sc3c(F)cc(F)cc3C#N)c3c(C#N)cnn3c2)cnn1C1CCNCC1` [Example 145, 4-((2-cyano-4,6-difluorophenyl)thio)-6-(5-methyl-1-(piperidin-4-yl)-1H-pyrazol-4-yl)pyrazolo[1,5-a]pyridine-3-carbonitrile] was tested. Which IC50 did it give?
**A.** The IC50 was 7 nM.

**Q.** How did the IC50 turn out when `Cc1c(-c2cc(Sc3ncccc3F)c3c(C#N)cnn3c2)cnn1C1CCN([C@@H](C)CO)CC1` [Example 146, (S)-4-((3-fluoropyridin-2-yl)thio)-6-(1-(1-(1-hydroxypropan-2-yl)piperidin-4-yl)-5-methyl-1H-pyrazol-4-yl)pyrazolo[1,5-a]pyridine-3-carbonitrile] was run?
**A.** The IC50 was 2 nM.

**Q.** With `Cc1c(-c2cc(Sc3ncccc3F)c3c(C#N)cnn3c2)cnn1C1CCN([C@H](C)CO)CC1` [Example 147, (R)-4-((3-fluoropyridin-2-yl)thio)-6-(1-(1-(1-hydroxypropan-2-yl)piperidin-4-yl)-5-methyl-1H-pyrazol-4-yl)pyrazolo[1,5-a]pyridine-3-carbonitrile] as the compound, how does the IC50 read?
**A.** The IC50 was 2 nM.

**Q.** With `CO[C@H](C)CN1CCC(n2ncc(-c3cc(Sc4ncccc4F)c4c(C#N)cnn4c3)c2C)CC1` [Example 148, (R)-4-((3-fluoropyridin-2-yl)thio)-6-(1-(1-(2-methoxypropyl)piperidin-4-yl)-5-methyl-1H-pyrazol-4-yl)pyrazolo[1,5-a]pyridine-3-carbonitrile] as the compound, how does the IC50 read?
**A.** Its IC50 is 2 nM.

**Q.** For `CO[C@@H](C)CN1CCC(n2ncc(-c3cc(Sc4ncccc4F)c4c(C#N)cnn4c3)c2C)CC1` [Example 149, (S)-4-((3-fluoropyridin-2-yl)thio)-6-(1-(1-(2-methoxypropyl)piperidin-4-yl)-5-methyl-1H-pyrazol-4-yl)pyrazolo[1,5-a]pyridine-3-carbonitrile], which IC50 is on record?
**A.** Its IC50 is 2 nM.

**Q.** For `Cc1c(-c2cc(Sc3ncccc3F)c3c(C#N)cnn3c2)cnn1C[C@@H]1CCCNC1` [Example 150, (R)-4-((3-fluoropyridin-2-yl)thio)-6-(5-methyl-1-(piperidin-3-ylmethyl)-1H-pyrazol-4-yl)pyrazolo[1,5-a]pyridine-3-carbonitrile], which IC50 is on record?
**A.** The IC50 was 4 nM.

**Q.** How did the IC50 turn out when `Cc1c(-c2cc(Sc3c(F)cc(F)cc3C#N)c3c(C#N)cnn3c2)cnn1C1CCN(C)CC1` [Example 151] was run?
**A.** The IC50 was 2 nM.

**Q.** For `CC(=O)N1CCC(n2ncc(-c3cc(Sc4ncccc4F)c4c(C#N)cnn4c3)c2C)CC1` [Example 152, 6-(1-(1-acetylpiperidin-4-yl)-5-methyl-1H-pyrazol-4-yl)-4-((3-fluoropyridin-2-yl)thio)pyrazolo[1,5-a]pyridine-3-carbonitrile], which IC50 is on record?
**A.** Its IC50 is 2 nM.

**Q.** How did the IC50 turn out when `Cc1c(-c2cc(Sc3ncccc3F)c3c(C#N)cnn3c2)cnn1C1CCN(S(C)(=O)=O)CC1` [Example 153, 4-[(3-fluoro-2-pyridyl)sulfanyl]-6-[5-methyl-1-(1-methylsulfonyl-4-piperidyl)pyrazol-4-yl]pyrazolo[1,5-a]pyridine-3-carbonitrile] was run?
**A.** Its IC50 is 2 nM.

**Q.** With `Cc1c(-c2cc(Sc3ncccc3F)c3c(C#N)cnn3c2)cnn1[C@H]1CCNC[C@@H]1F` [Example 154, 6-[1-[(3S,4S)-3-fluoro-4-piperidyl]-5-methyl-pyrazol-4-yl]-4-[(3-fluoro-2-pyridyl)sulfanyl]pyrazolo[1,5-a]pyridine-3-carbonitrile] as the compound, how does the IC50 read?
**A.** Its IC50 is 2 nM.

**Q.** `CO[C@@H](C)CN1CCC(n2ncc(-c3cc(Sc4ccccc4C#N)c4c(C#N)cnn4c3)c2C)CC1` [Example 157, (S)-4-((2-cyanophenyl)thio)-6-(1-(1-(2-methoxypropyl)piperidin-4-yl)-5-methyl-1H-pyrazol-4-yl)pyrazolo[1,5-a]pyridine-3-carbonitrile] was tested. Which IC50 did it give?
**A.** The IC50 was 1 nM.

**Q.** For `COCC(C)N1CCC(n2ncc(-c3cc(Sc4ncccc4F)c4c(C#N)cnn4c3)c2C)CC1` (centres unmarked) [Example 158, 4-((3-fluoropyridin-2-yl)thio)-6-(1-(1-(1-methoxypropan-2-yl)piperidin-4-yl)-5-methyl-1H-pyrazol-4-yl)pyrazolo[1,5-a]pyridine-3-carbonitrile], which IC50 is on record?
**A.** Its IC50 is 2 nM.

**Q.** With `Cc1c(-c2cc(Sc3ccccc3C#N)c3c(C#N)cnn3c2)cnn1C1CCC(N(C)C)CC1` (centres unmarked) [Example 159] as the compound, how does the IC50 read?
**A.** Its IC50 is 0.5 nM.

**Q.** With `Cc1c(-c2cc(Sc3ncccc3F)c3c(C#N)cnn3c2)cnn1[C@@H](C)C1CCN(C)CC1` [Example 160, (S)-4-((3-fluoropyridin-2-yl)thio)-6-(5-methyl-1-(1-(1-methylpiperidin-4-yl)ethyl)-1H-pyrazol-4-yl)pyrazolo[1,5-a]pyridine-3-carbonitrile] as the compound, how does the IC50 read?
**A.** Its IC50 is 2 nM.

**Q.** `Cc1c(-c2cc(Sc3ncccc3F)c3c(C#N)cnn3c2)cnn1[C@@H](C)C1CCNCC1` [Example 161, 4-[(3-fluoro-2-pyridyl)sulfanyl]-6-[5-methyl-1-[(1S)-1-(4-piperidyl)ethyl]pyrazol-4-yl]pyrazolo[1,5-a]pyridine-3-carbonitrile] was tested. Which IC50 did it give?
**A.** Its IC50 is 2 nM.

**Q.** How did the IC50 turn out when `Cc1c(-c2cc(Sc3ncccc3F)c3c(C#N)cnn3c2)cnn1C1CC2(CCNCC2)C1` [Example 162, 4-((3-fluoropyridin-2-yl)thio)-6-(5-methyl-1-(7-azaspiro[3.5]nonan-2-yl)-1H-pyrazol-4-yl)pyrazolo[1,5-a]pyridine-3-carbonitrile] was run?
**A.** The IC50 was 1 nM.

**Q.** Which IC50 does the source give for `Cc1c(-c2cc(Sc3ncccc3F)c3c(C#N)cnn3c2)cnn1C1CCN(C(=O)CO)CC1` [Example 163, 4-((3-fluoropyridin-2-yl)thio)-6-(1-(1-(2-hydroxyacetyl)piperidin-4-yl)-5-methyl-1H-pyrazol-4-yl)pyrazolo[1,5-a]pyridine-3-carbonitrile] here?
**A.** Its IC50 is 3 nM.

**Q.** Which IC50 does the source give for `CC(=O)N1CCC(n2ncc(-c3cc(Sc4ncc(F)cc4F)c4c(C#N)cnn4c3)c2C)CC1` [Example 164, 6-(1-(1-acetylpiperidin-4-yl)-5-methyl-1H-pyrazol-4-yl)-4-((3,5-difluoropyridin-2-yl)thio)pyrazolo[1,5-a]pyridine-3-carbonitrile] here?
**A.** Its IC50 is 5 nM.

**Q.** For `Cc1c(-c2cc(Sc3ncccc3F)c3c(C#N)cnn3c2)cnn1[C@H]1CCCN(S(C)(=O)=O)C1` [Example 165, (S)-4-((3-fluoropyridin-2-yl)thio)-6-(5-methyl-1-(1-(methylsulfonyl)piperidin-3-yl)-1H-pyrazol-4-yl)pyrazolo[1,5-a]pyridine-3-carbonitrile], which IC50 is on record?
**A.** The IC50 was 2 nM.

**Q.** Which IC50 does the source give for `CC(=O)N1CCC[C@H](n2ncc(-c3cc(Sc4ncccc4F)c4c(C#N)cnn4c3)c2C)C1` [Example 166, (S)-6-(1-(1-acetylpiperidin-3-yl)-5-methyl-1H-pyrazol-4-yl)-4-((3-fluoropyridin-2-yl)thio)pyrazolo[1,5-a]pyridine-3-carbonitrile] here?
**A.** The IC50 was 2 nM.

**Q.** How did the IC50 turn out when `Cc1c(-c2cc(Sc3ncccc3F)c3c(C#N)cnn3c2)cnn1[C@H]1CCCN(C(=O)CO)C1` [Example 167, (S)-4-((3-fluoropyridin-2-yl)thio)-6-(1-(1-(2-hydroxyacetyl)piperidin-3-yl)-5-methyl-1H-pyrazol-4-yl)pyrazolo[1,5-a]pyridine-3-carbonitrile] was run?
**A.** The IC50 was 2 nM.

**Q.** Which IC50 does the source give for `Cc1c(F)ccc(Sc2cc(-c3cnn(C4CCNCC4)c3C)cn3ncc(C#N)c23)c1C#N` [Example 168] here?
**A.** Its IC50 is 1 nM.

**Q.** With `C[C@H](O)CN1CC[C@@H](n2cc(-c3cc(Sc4ccccc4C#N)c4c(C#N)cnn4c3)cn2)C1` [Example 169, 4-(2-cyanophenyl)sulfanyl-6-[1-[(3R)-1-[(2S)-2-hydroxypropyl]pyrrolidin-3-yl]pyrazol-4-yl]pyrazolo[1,5-a]pyridine-3-carbonitrile] as the compound, how does the IC50 read?
**A.** The IC50 was 0.4 nM.

**Q.** For `Cc1c(-c2cc(Sc3ccccc3C#N)c3c(C#N)cnn3c2)cnn1C[C@@H]1CCCNC1` [Example 170, 4-(2-cyanophenyl)sulfanyl-6-[5-methyl-1-[[(3R)-3-piperidyl]methyl]pyrazol-4-yl]pyrazolo[1,5-a]pyridine-3-carbonitrile], which IC50 is on record?
**A.** Its IC50 is 72 nM.

**Q.** With `Cc1c(-c2cc(Sc3ncccc3F)c3c(C#N)cnn3c2)cnn1C1CCC(N(C)C)CC1` (centres unmarked) [Example 171] as the compound, how does the IC50 read?
**A.** Its IC50 is 1 nM.

**Q.** For `CCN(C)C1CCC(n2ncc(-c3cc(Sc4ncccc4F)c4c(C#N)cnn4c3)c2C)CC1` (centres unmarked) [Example 172, 6-(1-(4-(ethyl(methyl)amino)cyclo-hexyl)-5-methyl-1H-pyrazol-4-yl)-4-((3-fluoropyridin-2-yl)thio)pyrazolo[1,5-a]pyridine-3-carbonitrile], which IC50 is on record?
**A.** The IC50 was 1 nM.

Source: patent US20240270741A1 (Cogent Biosciences, Inc., priority 2023, published 2024)
